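Interpolation was linear, between the two tested concentrations surrounding the appropriate level; five concentrations were tested over 48 hours in 96-well plates. GI50: concentration for 50% inhibition of growth.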 Calls of active or inactive are those of the source. Rule as the data show it: active = GI50 up to about 1.1 µM and inactive = higher.
How the values were obtained:
Assay in all cases: NCI anticancer screen, dose series, 48 h
[1] = tested on: CAKI-1
[2] = tested on: CCRF-CEM
[3] = tested on: COLO 205
[4] = tested on: DLD-1
[5] = tested on: HCT-116
[6] = tested on: HCT-15
[7] = tested on: K562
[8] = tested on: KM-20L2
[9] = tested on: KM12
[10] = tested on: LXFL 529
[11] = tested on: M14
[12] = tested on: MOLT-4
[13] = tested on: NCI-H226
[14] = tested on: OVCAR-5
[15] = tested on: OVCAR-8
[16] = tested on: SF-268
[17] = tested on: SN12C
[18] = tested on: BT-549
[19] = tested on: MDA-MB-231
[20] = tested on: T47D

Row | Structure (SMILES) | GI50 [1] | GI50 [2] | GI50 [3] | GI50 [4] | GI50 [5] | GI50 [6] [µM] | GI50 [7] | GI50 [8] | GI50 [9] | GI50 [10] | GI50 [11] | GI50 [12] | GI50 [13] | GI50 [14] | GI50 [15] | GI50 [16] | GI50 [17] | GI50 [18] | GI50 [19] | GI50 [20]
1 | CC1=NOC(=O)/C1=C/c1cccc2ccccc12 | > 100 µM (inactive) | > 100 µM (inactive) | > 100 µM (inactive) | > 100 µM (inactive) | > 100 µM (inactive) | > 100 | > 100 µM (inactive) | > 100 µM (inactive) | > 100 µM (inactive) | > 100 µM (inactive) | > 100 µM (inactive) | > 100 µM (inactive) | > 100 µM (inactive) | > 100 µM (inactive) | > 100 µM (inactive) | > 100 µM (inactive) | > 100 µM (inactive) |  |  | 
2 | O=C1OC2C(O)COC2(O)C1(O)Cc1c[nH]c2ccccc12 (stereo not drawn) | > 100 µM (inactive) | > 100 µM (inactive) | > 100 µM (inactive) | > 100 µM (inactive) | > 100 µM (inactive) | > 100 | > 100 µM (inactive) | > 100 µM (inactive) | > 100 µM (inactive) | > 100 µM (inactive) | > 100 µM (inactive) | > 100 µM (inactive) | > 100 µM (inactive) | > 100 µM (inactive) | > 100 µM (inactive) | > 100 µM (inactive) | > 100 µM (inactive) |  |  | 
3 | COC(=O)c1nc(NN)cc(O)c1CCCCCc1c(O)nc(NN)nc1C(=O)OC | > 100 µM (inactive) | > 100 µM (inactive) | > 77.8 µM (inactive) | > 100 µM (inactive) | > 100 µM (inactive) | > 100 | > 100 µM (inactive) | > 100 µM (inactive) | > 100 µM (inactive) | > 100 µM (inactive) | > 100 µM (inactive) | > 100 µM (inactive) | > 100 µM (inactive) | > 100 µM (inactive) | > 100 µM (inactive) | > 100 µM (inactive) | > 100 µM (inactive) |  |  | 
4 | C/C1=C/C2OC(=O)C3(C)C2C(CC2(C)OC1=CC2=O)OC3(O)C(C)C (stereo not drawn) | 30.5 µM (inactive) | 23.6 µM (inactive) | 36.6 µM (inactive) | 32.7 µM (inactive) | > 61.1 µM (inactive) | 20.3 | 32.7 µM (inactive) | 21.8 µM (inactive) | 27 µM (inactive) | 27.4 µM (inactive) | 37 µM (inactive) | 29.4 µM (inactive) | 33.5 µM (inactive) | 34.8 µM (inactive) | 29 µM (inactive) | 38.9 µM (inactive) | 31.4 µM (inactive) | 5.2 µM (inactive) | > 100 µM (inactive) | 58.2 µM (inactive)
5 | C#Cc1cccc(N2C(=O)CCC2=O)c1 | 13.6 µM (inactive) | 1.56 µM (inactive) | 6.73 µM (inactive) | 17.9 µM (inactive) | 9.08 µM (inactive) | 22.1 | 2.65 µM (inactive) | 25.8 µM (inactive) | 13.6 µM (inactive) | 11.1 µM (inactive) | 7.62 µM (inactive) | 2.77 µM (inactive) | 17.5 µM (inactive) | 16.7 µM (inactive) | 18.5 µM (inactive) | 17.7 µM (inactive) | 18.5 µM (inactive) | > 10 µM (inactive) | 12.2 µM (inactive) | 18.9 µM (inactive)
6 | Cn1cnc([N+](=O)[O-])c1Sc1nc2ccccc2[nH]1 | 3.68 µM (inactive) | 17.9 µM (inactive) | 10.4 µM (inactive) | 5.6 µM (inactive) | 14.8 µM (inactive) | 11.1 | 20.3 µM (inactive) | 16.4 µM (inactive) | 19.5 µM (inactive) | 6.67 µM (inactive) | 24.2 µM (inactive) | 6.87 µM (inactive) | 28.7 µM (inactive) | 52.8 µM (inactive) | 11.7 µM (inactive) | 14.3 µM (inactive) | 14.7 µM (inactive) |  |  | 
